Laboratory results from article PMC10503797, “Allosteric modulator potentiates β2AR agonist–promoted bronchoprotection in asthma models” (The Journal of Clinical Investigation, 2023).
“And” between values parts separate entries of the source, which are not always exact repeats. Identical values can stand only once.

Legend:
guinea pig β2AR [1] = target: T1, guinea pig β2AR (Cavia porcellus, UniProt Q8K4Z4); assay: 125I-CYP radioligand competition binding, guinea pig β2AR
guinea pig β2AR [2] = target: T1, guinea pig β2AR; assay: GloSensor cAMP, constitutive activity of overexpressed guinea pig β2AR

T1 sequence (Q8K4Z4 whole entry): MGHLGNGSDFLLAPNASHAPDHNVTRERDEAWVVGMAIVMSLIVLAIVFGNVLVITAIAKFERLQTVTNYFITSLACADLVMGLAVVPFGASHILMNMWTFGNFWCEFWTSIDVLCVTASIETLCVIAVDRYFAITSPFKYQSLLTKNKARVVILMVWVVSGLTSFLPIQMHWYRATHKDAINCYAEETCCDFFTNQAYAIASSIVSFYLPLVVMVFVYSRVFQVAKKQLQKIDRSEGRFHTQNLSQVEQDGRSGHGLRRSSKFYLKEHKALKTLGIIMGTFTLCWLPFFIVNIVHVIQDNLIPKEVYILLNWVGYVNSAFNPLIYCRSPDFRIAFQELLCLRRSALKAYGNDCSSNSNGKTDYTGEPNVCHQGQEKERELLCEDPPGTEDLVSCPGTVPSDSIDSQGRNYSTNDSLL

Q: For `COc1ccc(Sc2ccc(S(=O)(=O)N(C)C(C)C)cc2C(=O)N[C@H](CC(N)=O)Cc2ccc(C(C)(C)C)cc2)cc1` [Cmpd-6], which “125I-CYP binding, ISO competition curve (Figure 4B)” value (shortened to “125I-CYP binding … (Figure 4B)”) (guinea pig β2AR [1]; Cmpd-6 [5 uM], Log [ISO] (M) -8.70927) is on record?
A: 91.2908 and 98.8095 and 98.5241 and 100.522 and 98.3672

Q: What about the “125I-CYP binding … (Figure 4B)” value (guinea pig β2AR [1]; Cmpd-6 [5 uM], Log [ISO] (M) -9.31133) of the same molecule?
A: 97.2169 and 98.4924 and 100.303 and 100.814 and 103.36

Q: What about the “125I-CYP binding … (Figure 4B)” value (guinea pig β2AR [1]; Cmpd-6 [5 uM], Log [ISO] (M) -9.91339) of the same molecule?
A: 98.5199 and 97.6422 and 100.698 and 101.104 and 99.2184

Q: And the “125I-CYP binding … (Figure 4B)” value (guinea pig β2AR [1]; Cmpd-6 [5 uM], Log [ISO] (M) -11 (DMSO))?
A: 103.509 and 97.6444 and 99.5117 and 98.3736 and 96.5817

Q: And the “125I-CYP binding, Alb competition curve (Figure 4E)” value (from here on “125I-CYP binding … (Figure 4E)”) (guinea pig β2AR [1]; Cmpd-6 [25 uM], Log [Alb] (M) -4.49485)?
A: 2.733 and 2.385 and 4.038 and 2.554

Q: And the “125I-CYP binding … (Figure 4E)” value (guinea pig β2AR [1]; Cmpd-6 [25 uM], Log [Alb] (M) -5.09691)?
A: 4.618 and 4.73 and 8.896 and 4.926

Q: What about the “125I-CYP binding … (Figure 4E)” value (guinea pig β2AR [1]; Cmpd-6 [25 uM], Log [Alb] (M) -6.30103) of the same molecule?
A: 28.5337 and 34.114 and 50.4761 and 33.3615

Q: What about the “125I-CYP binding … (Figure 4E)” value (guinea pig β2AR [1]; Cmpd-6 [25 uM], Log [Alb] (M) -6.90309) of the same molecule?
A: 59.5755 and 62.9432 and 76.3108 and 62.8869

Q: And the “125I-CYP binding … (Figure 4E)” value (guinea pig β2AR [1]; Cmpd-6 [25 uM], Log [Alb] (M) -7.50515)?
A: 81.8149 and 87.2785 and 93.3109 and 87.5413

Q: What about the “125I-CYP binding … (Figure 4E)” value (guinea pig β2AR [1]; Cmpd-6 [25 uM], Log [Alb] (M) -8.10721) of the same molecule?
A: 96.1096 and 95.2866 and 96.5894 and 97.0774

Q: What about the “125I-CYP binding … (Figure 4E)” value (guinea pig β2AR [1]; Cmpd-6 [25 uM], Log [Alb] (M) -8.70927) of the same molecule?
A: 98.1238 and 100.926 and 100.115 and 99.527

Q: What about the “125I-CYP binding … (Figure 4E)” value (guinea pig β2AR [1]; Cmpd-6 [25 uM], Log [Alb] (M) -9.31133) of the same molecule?
A: 102.128 and 99.4951 and 103.592 and 101.926

Q: And the “125I-CYP binding … (Figure 4E)” value (guinea pig β2AR [1]; Cmpd-6 [25 uM], Log [Alb] (M) -9.91339)?
A: 98.9354 and 102.792 and 101.444 and 100.327

Q: What about the “125I-CYP binding … (Figure 4E)” value (guinea pig β2AR [1]; Cmpd-6 [25 uM], Log [Alb] (M) -11 (DMSO)) of the same molecule?
A: 100.906 and 97.7704 and 98.4446 and 97.5175

Q: What about the “125I-CYP binding, FEN competition curve (Figure 4D)” value (shortened to “125I-CYP binding … (Figure 4D)”) (guinea pig β2AR [1]; Cmpd-6 [25 uM], Log [FEN] (M) -4.49485) of the same molecule?
A: 1.409 and 1.866 and 2.061 and 1.201

Q: And the “125I-CYP binding … (Figure 4D)” value (guinea pig β2AR [1]; Cmpd-6 [25 uM], Log [FEN] (M) -6.90309)?
A: 30.825 and 36.7624 and 55.798 and 36.3648

Q: What about the “125I-CYP binding … (Figure 4D)” value (guinea pig β2AR [1]; Cmpd-6 [25 uM], Log [FEN] (M) -7.50515) of the same molecule?
A: 56.6182 and 66.5595 and 80.6389 and 63.8444

Q: And the “125I-CYP binding … (Figure 4D)” value (guinea pig β2AR [1]; Cmpd-6 [25 uM], Log [FEN] (M) -8.10721)?
A: 85.2358 and 86.7408 and 95.8272 and 89.5788

Q: What about the “125I-CYP binding … (Figure 4D)” value (guinea pig β2AR [1]; Cmpd-6 [25 uM], Log [FEN] (M) -8.70927) of the same molecule?
A: 93.1548 and 97.3369 and 100.273 and 95.4081

Q: And the “125I-CYP binding … (Figure 4D)” value (guinea pig β2AR [1]; Cmpd-6 [25 uM], Log [FEN] (M) -9.31133)?
A: 99.631 and 100.281 and 99.1957 and 101.634

Q: What about the “125I-CYP binding … (Figure 4D)” value (guinea pig β2AR [1]; Cmpd-6 [25 uM], Log [FEN] (M) -9.91339) of the same molecule?
A: 99.9681 and 102.324 and 101.127 and 101.353

Q: What about the “125I-CYP binding … (Figure 4D)” value (guinea pig β2AR [1]; Cmpd-6 [25 uM], Log [FEN] (M) -11 (DMSO)) of the same molecule?
A: 101.956 and 98.6366 and 99.5621 and 98.3857

Q: What about the “125I-CYP binding … (Figure 4B)” value (guinea pig β2AR [1]; Cmpd-6 [25 uM], Log [ISO] (M) -5.09691) of the same molecule?
A: 1.411 and 1.274 and 2.38 and 2.249 and 1.1946

Q: And the “125I-CYP binding … (Figure 4B)” value (guinea pig β2AR [1]; Cmpd-6 [25 uM], Log [ISO] (M) -6.90309)?
A: 12.3266 and 14.2939 and 23.2433 and 22.4081 and 20.0289

Q: And the “125I-CYP binding … (Figure 4B)” value (guinea pig β2AR [1]; Cmpd-6 [25 uM], Log [ISO] (M) -7.50515)?
A: 28.0286 and 51.334 and 48.5832 and 48.3069 and 46.746

Q: And the “125I-CYP binding … (Figure 4B)” value (guinea pig β2AR [1]; Cmpd-6 [25 uM], Log [ISO] (M) -8.70927)?
A: 84.2583 and 93.8004 and 93.7052 and 91.4625 and 91.5747

Q: What about the “125I-CYP binding … (Figure 4B)” value (guinea pig β2AR [1]; Cmpd-6 [25 uM], Log [ISO] (M) -9.31133) of the same molecule?
A: 94.8589 and 99.2775 and 101.069 and 99.6071 and 99.1245

Q: And the “125I-CYP binding … (Figure 4B)” value (guinea pig β2AR [1]; Cmpd-6 [25 uM], Log [ISO] (M) -9.91339)?
A: 97.1607 and 99.3939 and 99.6796 and 99.8936 and 100.155

Q: And the “125I-CYP binding … (Figure 4B)” value (guinea pig β2AR [1]; Cmpd-6 [25 uM], Log [ISO] (M) -11 (DMSO))?
A: 103.398 and 98.8874 and 98.4421 and 101.926 and 100.783

Q: What about the “125I-CYP binding, Salm competition curve (Figure 4F)” value (“125I-CYP binding … (Figure 4F)” below) (guinea pig β2AR [1]; Cmpd-6 [25 uM], Log [Salm] (M) -5.09691) of the same molecule?
A: 4.291 and 4.483 and 7.953 and 4.185

Q: What about the “125I-CYP binding … (Figure 4F)” value (guinea pig β2AR [1]; Cmpd-6 [25 uM], Log [Salm] (M) -5.69897) of the same molecule?
A: 11.1208 and 11.4804 and 19.9536 and 11.286

Q: And the “125I-CYP binding … (Figure 4F)” value (guinea pig β2AR [1]; Cmpd-6 [25 uM], Log [Salm] (M) -6.30103)?
A: 31.3057 and 32.3004 and 47.2072 and 32.0545

Q: What about the “125I-CYP binding … (Figure 4F)” value (guinea pig β2AR [1]; Cmpd-6 [25 uM], Log [Salm] (M) -6.90309) of the same molecule?
A: 67.1995 and 66.2422 and 79.0931 and 66.807

Q: What about the “125I-CYP binding … (Figure 4F)” value (guinea pig β2AR [1]; Cmpd-6 [25 uM], Log [Salm] (M) -7.50515) of the same molecule?
A: 88.5873 and 88.904 and 95.0429 and 88.3948

Q: And the “125I-CYP binding … (Figure 4F)” value (guinea pig β2AR [1]; Cmpd-6 [25 uM], Log [Salm] (M) -8.10721)?
A: 97.9774 and 97.2972 and 97.374 and 97.0377

Q: What about the “125I-CYP binding … (Figure 4F)” value (guinea pig β2AR [1]; Cmpd-6 [25 uM], Log [Salm] (M) -8.70927) of the same molecule?
A: 99.3713 and 100.399 and 100.671 and 100.779

Q: And the “125I-CYP binding … (Figure 4F)” value (guinea pig β2AR [1]; Cmpd-6 [25 uM], Log [Salm] (M) -9.31133)?
A: 100.672 and 102.486 and 99.6753 and 100.402

Q: And the “125I-CYP binding … (Figure 4F)” value (guinea pig β2AR [1]; Cmpd-6 [25 uM], Log [Salm] (M) -9.91339)?
A: 96.4457 and 99.6997 and 100.705 and 99.5228

Q: What about the “125I-CYP binding … (Figure 4F)” value (guinea pig β2AR [1]; Cmpd-6 [25 uM], Log [Salm] (M) -11 (DMSO)) of the same molecule?
A: 100.872 and 95.2897 and 98.0192 and 98.0519

Q: And the “cAMP, constitutive activity of overexpressed β2AR (Figure 4C)” value (guinea pig β2AR [2]; Species of β2AR: Guinea pig)?
A: 48.9693 and 55.2023 and 45.6589 and 55.6328

Q: And the “PAM activity in cAMP production induced by constitutive activity of overexpressed guinea pig β2AR” value (guinea pig β2AR [2]; no orthosteric agonist, 20 minutes)?
A: equivalent to what we observed with the overexpressed human receptor
